The record followed here is ChEMBL document CHEMBL1201862, “PubChem BioAssay data set” (2004).

Among the test systems are A549; EKVX; HCT-116; HCT-15; HL-60; HT-29; K562; KM12; NCI-H226; NCI-H522; OVCAR-4; OVCAR-5; RXF 393; SF-268; SK-MEL-5; SK-OV-3; U-251; UO-31; HOP-92; UACC-257.
Test in all cases: inhibition of tumour cell growth, NCI panel, 48 h

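Dose response: 5 concentrations. Exposure: 48 h. Format: 96-well plates. Endpoint: linear interpolation; highest concentration if not reached. GI50 marks 50% less growth.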 Calls of active or inactive are those of the source. Rule as the data show it: active = GI50 up to about 1.1 µM and inactive = higher. Where only a bound is given, the exact number is not on record here.

As to `COc1ccc(N2C(=O)C3c4[nH]c5cc(C)ccc5c4C4CCC(C(C)(C)C)CC4C3C2=O)cc1` (stereo not given), the GI50 with A549 is > 10 µM (inactive); in the assay with EKVX it was 9.1 µM (inactive); in the assay on HCT-116, > 10 µM (inactive); with HCT-15, over 10 µM; in the assay with HL-60, > 10 µM (inactive); with HT-29, > 10 µM (inactive). Also, the GI50 in the assay with K562 was > 10 µM (inactive); in the assay on KM12, > 10 µM (inactive); with NCI-H226 it was > 10 µM (inactive); in the assay on NCI-H522, 8.63 µM (inactive); in the assay with OVCAR-4, 4.36 µM (inactive); in the assay with OVCAR-5, > 10 µM (inactive). The GI50 with RXF 393 was > 10 µM (inactive); in the assay with SF-268, 5.75 µM (inactive); in the assay on SK-MEL-5 it was > 10 µM (inactive); with SK-OV-3 it was > 10 µM (inactive); in the assay with U-251, 5.43 µM (inactive); in the assay with UO-31, > 10 µM (inactive).
For the molecule `O=C(O)CN1CCCC(Cc2c[nH]c3ccccc23)C1` (stereo not given), the GI50 with A549 was > 100 µM (inactive); in the assay with EKVX, > 100 µM (inactive); in the assay with HCT-15, over 100 µM; in the assay with HOP-92 it was > 100 µM (inactive); in the assay with K562, 40.6 µM (inactive); with KM12, > 100 µM (inactive). In addition, the GI50 in the assay on NCI-H226, with OVCAR-4, in the assay on OVCAR-5, in the assay with RXF 393, in the assay on SF-268 and in the assay on SK-MEL-5 was > 100 µM (inactive) in each case. Also, the GI50 in the assay with SK-OV-3, in the assay with UACC-257 and in the assay with UO-31 was > 100 µM (inactive) each time.
On to `O=C(O)c1cccc2cccc(-c3c4ccc(=O)cc-4oc4cc(O)ccc34)c12`, for which the GI50 in the assay with A549 was > 100 µM (inactive); in the assay with EKVX it was > 100 µM (inactive); in the assay on HCT-116, > 100 µM (inactive); in the assay with HCT-15 it was over 100 µM; with HL-60 it was 62.7 µM (inactive); in the assay on HT-29, > 100 µM (inactive). Further, the GI50 is 31 µM (inactive) in the assay with K562; > 100 µM (inactive) in the assay with KM12; > 100 µM (inactive) in the assay on NCI-H522; > 100 µM (inactive) with OVCAR-4; > 100 µM (inactive) with OVCAR-5; > 100 µM (inactive) in the assay with RXF 393. Moreover, the GI50 was > 100 µM (inactive) in the assay with SF-268; > 100 µM (inactive) in the assay on SK-MEL-5; 33.4 µM (inactive) with SK-OV-3; > 100 µM (inactive) in the assay with U-251; > 100 µM (inactive) in the assay with UACC-257; > 100 µM (inactive) with UO-31.
With `O=C(c1ccccc1)c1cn(/N=C\c2ccccc2)c(=O)nc1-c1ccccc1`, the GI50 was > 100 µM (inactive) in the assay on A549; > 100 µM (inactive) in the assay with EKVX; > 100 µM (inactive) in the assay with HCT-116; over 100 µM with HCT-15; 92.9 µM (inactive) in the assay with HOP-92; > 100 µM (inactive) with HT-29. For the same molecule, the GI50 in the assay with K562, in the assay with KM12, in the assay on NCI-H226, in the assay on NCI-H522, with OVCAR-4 and in the assay on OVCAR-5 was > 100 µM (inactive) in each case. Besides, the GI50 in the assay on RXF 393, with SF-268, in the assay on SK-MEL-5, in the assay with SK-OV-3, with U-251 and in the assay with UACC-257 was > 100 µM (inactive) in each case. In addition, the GI50 in the assay on UO-31 was > 100 µM (inactive).
Consider `CN(C)CCN(/C(=N/c1ccccc1)N1CCCC1)c1ccccc1`, for which the GI50 was 58.3 µM (inactive) in the assay with A549; > 100 µM (inactive) with EKVX; 3.91 µM (inactive) with HCT-116; 26.8 µM in the assay with HCT-15; 11.6 µM (inactive) in the assay with HL-60; 96.8 µM (inactive) in the assay on HOP-92. The GI50 is 5.01 µM (inactive) in the assay on HT-29; 10.3 µM (inactive) in the assay with K562; 20 µM (inactive) in the assay with KM12; 75.9 µM (inactive) with NCI-H226; 16.5 µM (inactive) in the assay with NCI-H522; 49.5 µM (inactive) with OVCAR-4. For the same molecule, the GI50 with OVCAR-5 was > 100 µM (inactive); with SF-268, > 100 µM (inactive); in the assay with SK-MEL-5, 30.2 µM (inactive); in the assay with SK-OV-3, > 100 µM (inactive); in the assay on U-251 it was 68.5 µM (inactive); with UACC-257, 55.1 µM (inactive). Further, the GI50 in the assay on UO-31 was 21.9 µM (inactive).
Consider `O=C1c2ccccc2C(=O)c2c1ccc1c2N=C(c2ccc(F)cc2)CC(c2ccc(Cl)c(Cl)c2)N1` (stereo not given), for which the GI50 in the assay on A549 was 18.4 µM (inactive); in the assay on EKVX, 3.96 µM (inactive); in the assay with HCT-116 it was 11.5 µM (inactive); in the assay with HCT-15, 5.81 µM; in the assay on HL-60, 3.94 µM (inactive); with HOP-92, 22.7 µM (inactive). Besides, the GI50 with HT-29 was 13.5 µM (inactive); with K562 it was 7.16 µM (inactive); with KM12 it was 6 µM (inactive); with NCI-H226, 22.2 µM (inactive); in the assay with NCI-H522, 7.29 µM (inactive); in the assay on OVCAR-4, 19 µM (inactive). In addition, the GI50 in the assay on OVCAR-5 was 14.7 µM (inactive); in the assay on SF-268 it was 15.2 µM (inactive); in the assay with SK-MEL-5, 15.6 µM (inactive); in the assay on SK-OV-3, 12.7 µM (inactive); with U-251, 12.1 µM (inactive); in the assay with UACC-257, 23.7 µM (inactive). Besides, in the assay with UO-31, the GI50 is 10.8 µM (inactive).
In the case of `NC(=O)Nc1cc(O)ccc1/N=N/c1ccc(S(=O)(=O)Nc2ccccn2)cc1`, the GI50 in the assay on A549 was > 100 µM (inactive); in the assay on EKVX it was > 100 µM (inactive); in the assay on HCT-116 it was > 100 µM (inactive); in the assay with HCT-15, over 100 µM; in the assay on HL-60, > 100 µM (inactive); with HOP-92 it was > 100 µM (inactive). For the same molecule, the GI50 in the assay with HT-29, in the assay with K562, in the assay on KM12, in the assay on NCI-H522, with OVCAR-4 and in the assay on OVCAR-5 was > 100 µM (inactive) in each case. Besides, the GI50 with SF-268, in the assay with SK-MEL-5, in the assay with SK-OV-3, with U-251, in the assay on UACC-257 and with UO-31 was > 100 µM (inactive) throughout.
On to `Cn1cnnc1Sc1c([N+](=O)[O-])nc(-c2ccc([N+](=O)[O-])cc2)n1C`, for which the GI50 in the assay with A549 was > 100 µM (inactive); in the assay with EKVX, 27.5 µM (inactive); in the assay with HCT-116, 15.1 µM (inactive); in the assay on HOP-92 it was 19.4 µM (inactive); in the assay on HT-29, 18.4 µM (inactive); with K562 it was 18 µM (inactive). Further, the GI50 with KM12 was 20.5 µM (inactive); with NCI-H226, 20.9 µM (inactive); in the assay with NCI-H522, 6.1 µM (inactive); in the assay on OVCAR-4, 16.1 µM (inactive); in the assay on OVCAR-5 it was 27.7 µM (inactive); in the assay with SF-268, 16.9 µM (inactive). Also, the GI50 in the assay with SK-MEL-5 is 16.9 µM (inactive); in the assay on SK-OV-3, > 100 µM (inactive); in the assay on U-251 it was 16.6 µM (inactive); with UACC-257 it was 16 µM (inactive); with UO-31 it was 14.7 µM (inactive).
Take `CCC1C[N+]23CCc4c([nH]c5ccccc45)C2CC1CC3` (stereo not given): the GI50 is > 100 µM (inactive) in the assay on EKVX; > 100 µM (inactive) with HCT-116; 68.2 µM with HCT-15; 82.6 µM (inactive) in the assay on HOP-92; > 100 µM (inactive) with HT-29; 70.8 µM (inactive) in the assay on K562. Besides, the GI50 in the assay with KM12 was 64.7 µM (inactive); in the assay with NCI-H226, 45.9 µM (inactive); with NCI-H522, 55.1 µM (inactive); with OVCAR-4 it was 81.5 µM (inactive); with OVCAR-5, > 100 µM (inactive); with RXF 393, > 100 µM (inactive). Moreover, the GI50 is > 100 µM (inactive) in the assay on SF-268; 22.4 µM (inactive) in the assay with SK-MEL-5; > 100 µM (inactive) in the assay on SK-OV-3; 98.6 µM (inactive) in the assay with U-251; 50.1 µM (inactive) in the assay with UACC-257; 41.4 µM (inactive) in the assay with UO-31.
Regarding `COc1cc(OC)c(SSCCCCS(=O)O)c(OC)c1`, the GI50 is 19 µM (inactive) in the assay on A549; 13.7 µM (inactive) in the assay with EKVX; 16.3 µM (inactive) with HCT-116; 16.6 µM with HCT-15; 3.91 µM (inactive) in the assay on HL-60; 16.4 µM (inactive) in the assay with HT-29. In addition, the GI50 in the assay on K562 was 17.4 µM (inactive); with KM12, 14.9 µM (inactive); with NCI-H522, 6.65 µM (inactive); with OVCAR-4 it was 14.3 µM (inactive); with OVCAR-5, 16.6 µM (inactive); in the assay with RXF 393, 14.5 µM (inactive). Moreover, the GI50 with SF-268 is 15.5 µM (inactive); in the assay with SK-MEL-5 it was 10.4 µM (inactive); with SK-OV-3 it was 23.8 µM (inactive); with U-251, 14.5 µM (inactive); in the assay on UACC-257 it was 10.7 µM (inactive); with UO-31, 18.3 µM (inactive).
Regarding `O=C1/C(=C/c2ccc(Cl)cc2)CNC/C1=C\c1ccc(Cl)cc1`, the GI50 with A549 is 4.76 µM (inactive); in the assay on HCT-116, 0.83 µM (active); with HCT-15 it was 1.16 µM; in the assay on KM12, 1.22 µM (inactive); in the assay with NCI-H226 it was 2.44 µM (inactive); in the assay with NCI-H522, 1.92 µM (inactive). For the same molecule, the GI50 was 4.79 µM (inactive) in the assay with OVCAR-5; 1.51 µM (inactive) in the assay on SF-268; 4.44 µM (inactive) in the assay with SK-MEL-5; 12.1 µM (inactive) in the assay with SK-OV-3; 0.782 µM (active) in the assay with U-251.
